# Assays:
# [1] = tested on: sedge, umbrella; test: Test B flooded paddy test; assay type: in vivo, Cyperus difformis; details: 250 g ai/ha, Flood, 13 days, 0 to 100 scale (0 no effect, 100 complete control)
# Procedure, shortened: (§1)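 Species grown to 2-leaf stage; pots flooded 3 cm above soil and compound applied directly to paddy water, depth maintained throughout. After 13 days in greenhouse, plants visually rated against controls on 0–100 scale (0 no effect, 100 complete control); dash means no result.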
# [2] = tested on: ducksalad; test: Test B flooded paddy test; assay type: in vivo, Heteranthera limosa; details: 250 g ai/ha, Flood, 13 days, 0 to 100 scale (0 no effect, 100 complete control)
# Procedure, shortened: as §1
# [3] = tested on: soybean; test: Test A postemergence; assay type: in vivo, Glycine max; details: postemergence, 10 days; for Plant response rating, Soybean: 500 g ai/ha, visual injury, 0 to 100 scale (0 no effect, 100 complete control)
# Procedure, shortened: (§2)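 Visual injury ratings on a 0–100 scale (100 = complete control) versus untreated controls, taken 10 days after treatment in greenhouse. Preemergence: directed soil spray onto seeded loam/sand. Postemergence: foliar application at one- to two-leaf stage, plants 2–10 cm. Formulation: non-phytotoxic solvent plus surfactant.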
# [4] = tested on: kochia; test: Test A preemergence; assay type: in vivo, Bassia scoparia
# Procedure, shortened: as §2
# [5] = tested on: ragweed; test: Test A preemergence; assay type: in vivo, Ambrosia artemisiifolia
# Procedure, shortened: as §2
# [6] = tested on: pigweed, palmer; test: Test A postemergence; assay type: in vivo, Amaranthus palmeri; details: postemergence, 10 days; for Plant response rating, Pigweed, Palmer: 500 g ai/ha, visual injury, 0 to 100 scale (0 no effect, 100 complete control)
# Procedure, shortened: as §2
# [7] = tested on: corn; test: Test A postemergence; assay type: in vivo, Zea mays; details: postemergence, 10 days; for Plant response rating, Corn: visual injury, 0 to 100 scale (0 no effect, 100 complete control)
# Procedure, shortened: as §2
# [8] = tested on: ragweed; test: Test A postemergence; assay type: in vivo, Ambrosia artemisiifolia; details: postemergence, 10 days; for Plant response rating, Ragweed: 500 g ai/ha, visual injury, 0 to 100 scale (0 no effect, 100 complete control)
# Procedure, shortened: as §2
# [9] = tested on: wheat; test: Test A preemergence; assay type: in vivo, Triticum aestivum
# Procedure, shortened: as §2
# [10] = tested on: goosegrass; test: Test A preemergence; assay type: in vivo, Eleusine indica
# Procedure, shortened: as §2
# [11] = tested on: horseweed; test: Test A postemergence; assay type: in vivo, Erigeron canadensis; details: postemergence, 10 days; for Plant response rating, Horseweed: visual injury, 0 to 100 scale (0 no effect, 100 complete control)
# Procedure, shortened: as §2
# [12] = tested on: oat, wild; test: Test A postemergence; assay type: in vivo, Avena fatua; details: postemergence, 10 days; for Plant response rating, Oat, Wild: 500 g ai/ha, visual injury, 0 to 100 scale (0 no effect, 100 complete control)
# Procedure, shortened: as §2
# [13] = tested on: pigweed, palmer; test: Test A preemergence; assay type: in vivo, Amaranthus palmeri
# Procedure, shortened: as §2
# [14] = tested on: soybean; test: Test A preemergence; assay type: in vivo, Glycine max
# Procedure, shortened: as §2
# [15] = tested on: oat, wild; test: Test A preemergence; assay type: in vivo, Avena fatua
# Procedure, shortened: as §2
# [16] = tested on: galium; test: Test A postemergence; assay type: in vivo, Galium aparine; details: postemergence, 10 days; for Plant response rating, Galium: visual injury, 0 to 100 scale (0 no effect, 100 complete control)
# Procedure, shortened: as §2
# [17] = tested on: wheat; test: Test A postemergence; assay type: in vivo, Triticum aestivum; details: postemergence, 10 days; for Plant response rating, Wheat: 500 g ai/ha, visual injury, 0 to 100 scale (0 no effect, 100 complete control)
# Procedure, shortened: as §2
# [18] = tested on: ryegrass, Italian; test: Test A postemergence; assay type: in vivo, Lolium multiflorum; details: postemergence, 10 days; for Plant response rating, Ryegrass, Italian: 500 g ai/ha, visual injury, 0 to 100 scale (0 no effect, 100 complete control)
# Procedure, shortened: as §2
# [19] = tested on: goosegrass; test: Test A postemergence; assay type: in vivo, Eleusine indica; details: postemergence, 10 days; for Plant response rating, Goosegrass: visual injury, 0 to 100 scale (0 no effect, 100 complete control)
# Procedure, shortened: as §2
# [20] = tested on: rice; test: Test B flooded paddy test; assay type: in vivo, Oryza sativa; details: 250 g ai/ha, Flood, 13 days, 0 to 100 scale (0 no effect, 100 complete control)
# Procedure, shortened: as §1
# [21] = tested on: corn; test: Test A preemergence; assay type: in vivo, Zea mays
# Procedure, shortened: as §2
# [22] = tested on: blackgrass; test: Test A postemergence; assay type: in vivo, Alopecurus myosuroides
# Procedure, shortened: as §2
# [23] = tested on: barnyardgrass; test: Test B flooded paddy test; assay type: in vivo, Echinochloa crus-galli; details: 250 g ai/ha, Flood, 13 days, 0 to 100 scale (0 no effect, 100 complete control)
# Procedure, shortened: as §1
# [24] = tested on: ryegrass, Italian; test: Test A preemergence; assay type: in vivo, Lolium multiflorum
# Procedure, shortened: as §2
# [25] = tested on: foxtail, giant; test: Test A postemergence; assay type: in vivo, Setaria faberi; details: postemergence, 10 days; for Plant response rating, Foxtail, Giant: visual injury, 0 to 100 scale (0 no effect, 100 complete control)
# Procedure, shortened: as §2
# [26] = tested on: kochia; test: Test A postemergence; assay type: in vivo, Bassia scoparia; details: postemergence, 10 days; for Plant response rating, Kochia: visual injury, 0 to 100 scale (0 no effect, 100 complete control)
# Procedure, shortened: as §2
# [27] = tested on: foxtail, giant; test: Test A preemergence; assay type: in vivo, Setaria faberi
# Procedure, shortened: as §2
# [28] = tested on: blackgrass; test: Test A preemergence; assay type: in vivo, Alopecurus myosuroides
# Procedure, shortened: as §2
# [29] = 125 g ai/ha, visual injury after 10 days, 0 to 100 scale, 0 is no effect, 100 is complete control
# [30] = 500 g ai/ha, 0 to 100 scale (0 no effect, 100 complete control), 10 days
# [31] = 125 g ai/ha, 0 to 100 scale, 0 no effect, 100 complete control
compound,measurement,setting,value
CC(C)c1ncn(-c2cccc(C(=O)N3C[C@H](C)Oc4c(Cl)cccc43)c2)n1 [Compound 78],"Plant response rating, Sedge, Umbrella",[1],0
same,"Plant response rating, Ducksalad",[2],75
same,"Plant response rating, Soybean",[3],100
same,"Plant response rating, Kochia",[4]; [29],90
same,"Plant response rating, Kochia",[4]; [30],100
same,"Plant response rating, Ragweed",[5]; [29],0
same,"Plant response rating, Ragweed",[5]; [30],90
same,"Plant response rating, Pigweed, Palmer",[6],90
same,"Plant response rating, Corn",[7]; 125 g ai/ha,10
same,"Plant response rating, Corn",[7]; 500 g ai/ha,60
same,"Plant response rating, Ragweed",[8],80
same,"Plant response rating, Wheat",[9]; [29],20
same,"Plant response rating, Wheat",[9]; [30],80
same,"Plant response rating, Goosegrass",[10]; [29],90
same,"Plant response rating, Goosegrass",[10]; [30],100
same,"Plant response rating, Horseweed",[11]; 125 g ai/ha,0
same,"Plant response rating, Horseweed",[11]; 500 g ai/ha,0
same,"Plant response rating, Oat, Wild",[12],90
same,"Plant response rating, Pigweed, Palmer",[13]; [29],100
same,"Plant response rating, Pigweed, Palmer",[13]; [30],100
same,"Plant response rating, Soybean",[14]; [29],0
same,"Plant response rating, Soybean",[14]; [30],100
same,"Plant response rating, Oat, Wild",[15]; [29],80
same,"Plant response rating, Oat, Wild",[15]; [30],90
same,"Plant response rating, Galium",[16]; 125 g ai/ha,100
same,"Plant response rating, Galium",[16]; 500 g ai/ha,100
same,"Plant response rating, Wheat",[17],50
same,"Plant response rating, Ryegrass, Italian",[18],100
same,"Plant response rating, Goosegrass",[19]; 125 g ai/ha,40
same,"Plant response rating, Goosegrass",[19]; 500 g ai/ha,80
same,"Plant response rating, Rice",[20],0
same,"Plant response rating, Corn",[21]; [29],30
same,"Plant response rating, Corn",[21]; [30],30
same,"Plant response rating, Blackgrass","[22]; 125 g ai/ha, postemergence, 10 days, visual injury, 0 to 100 scale (0 no effect, 100 complete control)",50
same,"Plant response rating, Blackgrass","[22]; 500 g ai/ha, Postemergence, 0 to 100 scale",90
same,"Plant response rating, Barnyardgrass",[23],0
same,"Plant response rating, Ryegrass, Italian",[24]; [29],90
same,"Plant response rating, Ryegrass, Italian",[24]; [30],100
same,"Plant response rating, Foxtail, Giant",[25]; 125 g ai/ha,50
same,"Plant response rating, Foxtail, Giant",[25]; 500 g ai/ha,90
same,"Plant response rating, Kochia",[26]; 125 g ai/ha,70
same,"Plant response rating, Kochia",[26]; 500 g ai/ha,100
same,"Plant response rating, Foxtail, Giant",[27]; [29],100
same,"Plant response rating, Foxtail, Giant",[27]; [30],100
C[C@H]1CN(C(=O)c2cccc(-n3cnc(CC4CCCCC4)n3)c2)c2cccc(Cl)c2O1 [Compound 90],"Plant response rating, Sedge, Umbrella",[1],0
same,"Plant response rating, Ducksalad",[2],0
same,Soybean plant response rating,[3]; [31],20
same,"Plant response rating, Soybean",[3],20
same,"Plant response rating, Ragweed",[5]; [29],0
same,"Plant response rating, Ragweed",[5]; [30],0
same,"Pigweed, Palmer plant response rating",[6]; [31],0
same,"Plant response rating, Pigweed, Palmer",[6],50
same,Corn plant response rating,[7]; [31],0
same,"Plant response rating, Corn",[7]; 500 g ai/ha,0
same,Ragweed plant response rating,[8]; [31],0
same,"Plant response rating, Ragweed",[8],0
same,"Plant response rating, Wheat",[9]; [29],0
same,"Plant response rating, Wheat",[9]; [30],0
same,"Plant response rating, Goosegrass",[10]; [29],0
same,"Plant response rating, Goosegrass",[10]; [30],0
same,Horseweed plant response rating,[11]; [31],0
same,"Plant response rating, Horseweed",[11]; 500 g ai/ha,0
same,"Oat, Wild plant response rating",[12]; [31],0
same,"Plant response rating, Oat, Wild",[12],0
same,"Plant response rating, Pigweed, Palmer",[13]; [29],0
same,"Plant response rating, Pigweed, Palmer",[13]; [30],0
same,"Plant response rating, Soybean",[14]; [29],0
same,"Plant response rating, Soybean",[14]; [30],0
same,"Plant response rating, Oat, Wild",[15]; [29],0
same,"Plant response rating, Oat, Wild",[15]; [30],0
same,Galium plant response rating,[16]; [31],0
same,"Plant response rating, Galium",[16]; 500 g ai/ha,0
same,Wheat plant response rating,[17]; [31],10
same,"Plant response rating, Wheat",[17],10
same,"Ryegrass, Italian plant response rating",[18]; [31],0
same,"Plant response rating, Ryegrass, Italian",[18],0
same,Goosegrass plant response rating,[19]; [31],0
same,"Plant response rating, Goosegrass",[19]; 500 g ai/ha,0
same,"Plant response rating, Rice",[20],0
same,"Plant response rating, Corn",[21]; [29],0
same,"Plant response rating, Corn",[21]; [30],0
same,Blackgrass plant response rating,"[22]; 125 g ai/ha, postemergence, 10 days, 0 to 100 scale, 0 no effect, 100 complete control",0
same,"Plant response rating, Blackgrass","[22]; 500 g ai/ha, postemergence, 10 days, visual injury, 0 to 100 scale (0 no effect, 100 complete control)",0
same,"Plant response rating, Barnyardgrass",[23],0
same,"Plant response rating, Blackgrass",[28]; [29],0
same,"Plant response rating, Blackgrass",[28]; [30],0
same,"Plant response rating, Ryegrass, Italian",[24]; [29],0
same,"Plant response rating, Ryegrass, Italian",[24]; [30],0
same,"Foxtail, Giant plant response rating",[25]; [31],0
same,"Plant response rating, Foxtail, Giant",[25]; 500 g ai/ha,0
same,Kochia plant response rating,[26]; [31],0
same,"Plant response rating, Kochia",[26]; 500 g ai/ha,20
same,"Plant response rating, Foxtail, Giant",[27]; [29],0
same,"Plant response rating, Foxtail, Giant",[27]; [30],0
